Source: paper PMC11842588, “A first-in-class selective inhibitor of ERK1/2 and ERK5 overcomes drug resistance with a single-molecule strategy” (Signal Transduction and Targeted Therapy, 2025)

Columns and labels:
MDA-MB-231 cells = assay: MTT cell viability assay; format: cell-based; settings: 10 μM
Experimental: (§1) MDA-MB-468 and MDA-MB-436 cells were cultured in Leibovitz’s L-15 medium supplemented with 10% fetal bovine serum. […] All of the cells were cultured at 37 °C in a humidified atmosphere containing 5% CO2.
(§2) Cancer cells were seeded in a density in 96-well plates (2 × 10^3 cells per well). After incubation for 24 h, cancer cells were treated with compounds (0–20 μM) for 72 h.

MDA-MB-468 cells = assay: MTT cell viability assay; format: cell-based; settings: 10 μM
Experimental: as §1, §2

ERK2 = ERK2 (Homo sapiens, UniProt P28482); assay: ADP-Glo kinase assay; format: biochemical; settings: for inhibition at 0.5 µM: read-out: Enzyme inhibitory activity (500 nM, %) ERK2
ERK2, sequence (P28482 whole entry, the tested form may be a part): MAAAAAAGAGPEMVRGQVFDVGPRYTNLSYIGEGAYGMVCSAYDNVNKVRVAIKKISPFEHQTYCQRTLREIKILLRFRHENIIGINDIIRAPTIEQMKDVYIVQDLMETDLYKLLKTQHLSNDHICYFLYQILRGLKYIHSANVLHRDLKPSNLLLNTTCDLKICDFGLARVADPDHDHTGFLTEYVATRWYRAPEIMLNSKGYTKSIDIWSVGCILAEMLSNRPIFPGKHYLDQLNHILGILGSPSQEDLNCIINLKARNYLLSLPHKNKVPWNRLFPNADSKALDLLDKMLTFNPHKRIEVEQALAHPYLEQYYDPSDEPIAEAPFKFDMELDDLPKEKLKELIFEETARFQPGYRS
Experimental: (§3) The full-length human ERK1 or ERK2 with His-tag was cloned into a pET28a vector. hERK1/2 were expressed in Escherichia coli BL21(DE3), and then were purified using sequential Ni-NTA and Superdex 200 column steps. The SEC purified sample was then concentrated to 10 mg/ml and stored at −80 °C with buffer containing 20 mM HEPES pH 7.5, 150 mM NaCl. ERK5 (residues 48–395) containing His and GST tags was cloned into the pFastBac vector, and the recombinant plasmid was extracted. The recombinant plasmid was transformed into the DH10bac strain, and monoclonal was selected for culture. The recombinant Bacmid was then extracted according to the instructions of the Baculovirus Shuttle Vector Bacmid Mini Preparation Kit (Beyotime) and validated by PCR. 1 × 10^6/well Sf9 cells were counted for transfection and then amplified to obtain P3 ERK5 recombinant baculovirus. It was added to 2 × 10^6/mL Sf9 cells and incubated at 27 °C for 72 h on a shaker to express ERK5. Cells were lysed and supernatant was collected on a Ni-NTA for purification, and a 250 mM imidazole eluate was collected. Next, digestion by TEV protease was performed overnight while dialysis was performed in approximately 1000 mL of imidazole-free buffer. The digested ERK5 protein was sequentially purified on the Ni-NTA and GST-tag Purification Resin, followed by size exclusion chromatography on a Superdex 75 column. ERK5 protein was collected and concentrated to 12 mg/ml and stored at −80 °C in buffer containing 50 mM HEPES pH 8.0, 200 mM NaCl, 10% (v/v) glycerol.
(§4) ERK1/2/5 kinase activity assay was conducted using ADP-Glo™ Kinase Assay. 2× ATP solution and 2× kinase & Metal solution were prepared using assay buffer were prepared using assay buffer containing 50 mM Hepes pH 7.5, 10 mM MgCl2; 0.01% Brij35, 1 mM EGTA, 2 mM DTT. Transfer 40 nL compounds to 384 assay plate. Add 2 μL of 2× kinase & Metal solution were mixed and incubated in a 384-assay plate for 10 min at 25 °C. 2 μL of 2×ATP solution was added and incubated at 25 °C for 60 min. And then, each well was supplemented with 4 µL of ADP-Glo^TM reagent and incubated at 25 °C for 40 min. Subsequently, 8 µL of Kinase Detection Reagent was added and incubated at 25 °C for 40 min. Finally, the luminescence signals were recorded. The IC50 values were calculated using GraphPad Prism 9.5 software.

ERK5 = ERK5 (Homo sapiens, UniProt Q13164); assay: ADP-Glo kinase assay; format: biochemical; settings: for inhibition at 0.5 µM: read-out: Enzyme inhibitory activity (500 nM, %) ERK5
ERK5, sequence (Q13164 whole entry): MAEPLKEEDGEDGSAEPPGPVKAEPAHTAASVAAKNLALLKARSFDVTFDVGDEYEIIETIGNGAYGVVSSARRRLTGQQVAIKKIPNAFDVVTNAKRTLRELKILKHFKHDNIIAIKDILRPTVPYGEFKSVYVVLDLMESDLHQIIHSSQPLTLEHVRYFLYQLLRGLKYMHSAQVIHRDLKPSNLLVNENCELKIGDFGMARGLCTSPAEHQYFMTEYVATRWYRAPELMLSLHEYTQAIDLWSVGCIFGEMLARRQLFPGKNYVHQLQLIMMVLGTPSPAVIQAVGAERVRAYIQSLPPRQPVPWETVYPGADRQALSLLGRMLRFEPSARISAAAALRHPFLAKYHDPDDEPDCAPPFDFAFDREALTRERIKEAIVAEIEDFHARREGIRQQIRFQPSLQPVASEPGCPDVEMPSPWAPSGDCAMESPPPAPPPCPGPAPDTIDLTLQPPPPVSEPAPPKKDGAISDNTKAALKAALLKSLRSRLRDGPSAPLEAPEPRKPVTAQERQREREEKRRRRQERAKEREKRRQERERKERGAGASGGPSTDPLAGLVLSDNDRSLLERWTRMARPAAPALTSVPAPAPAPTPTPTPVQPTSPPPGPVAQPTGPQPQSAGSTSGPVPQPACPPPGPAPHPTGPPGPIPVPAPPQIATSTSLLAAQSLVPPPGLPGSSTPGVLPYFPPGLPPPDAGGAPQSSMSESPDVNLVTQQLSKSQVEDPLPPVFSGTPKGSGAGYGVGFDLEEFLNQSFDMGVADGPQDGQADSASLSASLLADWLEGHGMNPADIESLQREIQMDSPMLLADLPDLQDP
Experimental: as §3, §4

ERK1 = ERK1 (Homo sapiens, UniProt P27361); assay: ADP-Glo kinase assay; format: biochemical; settings: for inhibition at 0.5 µM: read-out: Enzyme inhibitory activity (500 nM, %) ERK1
ERK1, sequence (P27361 whole entry): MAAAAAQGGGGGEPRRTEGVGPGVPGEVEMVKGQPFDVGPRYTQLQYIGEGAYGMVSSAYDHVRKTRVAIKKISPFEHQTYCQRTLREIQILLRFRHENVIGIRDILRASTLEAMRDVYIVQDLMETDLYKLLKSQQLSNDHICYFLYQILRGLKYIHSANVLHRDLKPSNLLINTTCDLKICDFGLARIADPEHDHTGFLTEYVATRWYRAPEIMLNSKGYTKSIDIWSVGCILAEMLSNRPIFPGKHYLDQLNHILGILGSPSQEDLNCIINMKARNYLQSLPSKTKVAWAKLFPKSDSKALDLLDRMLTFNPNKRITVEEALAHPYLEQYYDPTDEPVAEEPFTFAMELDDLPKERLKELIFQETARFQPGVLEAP
Experimental: as §3, §4

| Compound | inhibition at 0.5 µM (ERK2) [%] | inhibition at 0.5 µM (ERK5) [%] | inhibition at 0.5 µM (ERK1) [%] | Enzyme inhibitory activity (500 nM, %) ERK2 (ERK2) [%] | Enzyme inhibitory activity (500 nM, %) ERK5 (ERK5) [%] | Enzyme inhibitory activity (500 nM, %) ERK1 (ERK1) [%] | Anti-proliferative activity (10 μM, %) MDA-MB-231 (MDA-MB-231 cells) [%] | Anti-proliferative activity (10 μM, %) MDA-MB-468 (MDA-MB-468 cells) [%] |
| --- | --- | --- | --- | --- | --- | --- | --- | --- |
| CN1CCN(NC(=O)c2cc(-c3nc(Nc4ccnn4C)ncc3Cl)cs2)CC1 [6a, 4-(5-chloro-2-((1-methyl-1H-pyrazol-5-yl)amino)pyrimidin-4-yl)-N-(4-methylpiperazin-1-yl)thiophene-2-carboxamide] | 97.4 ± 3.45 | 63.8 ± 0.32 | 95.72 ± 0.65 | – | – | – | 15.06 ± 0.35 | 10.78 ± 1.32 |
| CN1CCN(C(=O)c2cc(-c3nc(Nc4ccnn4C)ncc3Cl)cs2)CC1 [6b] | – | – | – | 39.03 ± 2.13 | 28.02 ± 1.34 | 40.45 ± 1.23 | 3.15 ± 1.22 | 25.81 ± 2.43 |
| CC(C)N1CCN(C(=O)c2cc(-c3nc(Nc4ccnn4C)ncc3Cl)cs2)CC1 [6c] | – | – | – | 14.38 ± 0.24 | 19.12 ± 2.15 | 21.57 ± 2.34 | 5.71 ± 1.21 | 3.51 ± 0.77 |
| Cn1nccc1Nc1ncc(Cl)c(-c2csc(C(=O)NC3CCSCC3)c2)n1 [6d] | – | – | – | 91.52 ± 0.31 | 34.57 ± 1.42 | 93.12 ± 1.89 | 37.21 ± 0.72 | 23.35 ± 2.34 |
| Cn1nccc1Nc1ncc(Cl)c(-c2csc(C(=O)NN3CCOCC3)c2)n1 [6e] | – | – | – | 99.00 ± 0.56 | 70.61 ± 0.98 | 97.82 ± 0.43 | 11.49 ± 1.48 | 0.70 ± 0.45 |
| Cn1nccc1Nc1ncc(Cl)c(-c2csc(C(=O)N[C@H]3CC[C@H](O)CC3)c2)n1 [6f] | – | – | – | 89.54 ± 2.31 | 35.94 ± 1.21 | 89.31 ± 0.87 | 11.85 ± 2.31 | 57.68 ± 1.09 |
| Cn1nccc1Nc1ncc(Cl)c(-c2csc(C(=O)NCc3cnccn3)c2)n1 [6h] | – | – | – | – | – | – | 23.65 ± 1.27 | 7.43 ± 3.45 |
| Cn1nccc1Nc1ncc(Cl)c(-c2csc(C(=O)Nc3ccccc3)c2)n1 [6i] | – | – | – | – | – | – | 5.65 ± 0.22 | -12.07 ± 2.31 |
| Cn1nccc1Nc1ncc(Cl)c(-c2csc(C(=O)Nc3cccc(F)c3)c2)n1 [6j] | – | – | – | – | – | – | 25.73 ± 0.57 | 10.11 ± 0.76 |
| Cn1nccc1Nc1ncc(Cl)c(-c2csc(C(=O)Nc3ccc(C(F)(F)F)cc3)c2)n1 [6y] | – | – | – | 51.08 ±2.31 | 23.21 ± 3.45 | 50.78 ± 0.89 | 8.87 ± 1.11 | 9.83 ± 0.93 |
| COc1cc(N2CCN(C)CC2)ccc1NC(=O)c1cc(-c2nc(Nc3ccnn3C)ncc2Cl)cs1 [H1] | 64.2 | 59.5 | 62.5 | – | – | – | – | – |

Further lines, with some results ahead:

| inhibition at 0.5 µM (ERK2) [%] | inhibition at 0.5 µM (ERK5) [%] | inhibition at 0.5 µM (ERK1) [%] | Enzyme inhibitory activity (500 nM, %) ERK2 (ERK2) [%] | Enzyme inhibitory activity (500 nM, %) ERK5 (ERK5) [%] | Enzyme inhibitory activity (500 nM, %) ERK1 (ERK1) [%] | Compound | Anti-proliferative activity (10 μM, %) MDA-MB-231 (MDA-MB-231 cells) [%] | Anti-proliferative activity (10 μM, %) MDA-MB-468 (MDA-MB-468 cells) [%] |
| --- | --- | --- | --- | --- | --- | --- | --- | --- |
| – | – | – | 97.67 ± 0.90 | 69.90 ± 2.56 | 95.98 ± 1.02 | CSc1ccc(NC(=O)c2cc(-c3nc(Nc4ccnn4C)ncc3Cl)cs2)cc1 [6ac] | 22.57 ± 1.11 | 18.49 ± 0.23 |
| – | – | – | 95.32 ± 0.08 | 61.02 ± 1.22 | 93.45 ± 1.80 | CC(C)Oc1ccc(NC(=O)c2cc(-c3nc(Nc4ccnn4C)ncc3Cl)cs2)cc1 [6ae] | 15.96 ± 0.09 | 4.62 ± 0.89 |
| – | – | – | 94.53 ± 1.21 | 65.13 ± 0.90 | 92.13 ± 1.04 | COc1ccc(NC(=O)c2cc(-c3nc(Nc4ccnn4C)ncc3Cl)cs2)cc1OC [6ag, 4-(5-chloro-2-((1-methyl-1H-pyrazol-5-yl)amino)pyri-midin-4-yl)-N-(3,4-dimethoxyphenyl)thiophene-2-carboxamide] | 33.67 ± 0.08 | 25.61 ± 0.45 |
| – | – | – | 72.75 ± 2.14 | 73.61 ± 3.12 | 70.32 ± 0.91 | Cc1cc(NC(=O)c2cc(-c3nc(Nc4ccnn4C)ncc3Cl)cs2)ccn1 [6g] | 6.82 ± 2.13 | 20.23 ± 0.32 |
| – | – | – | 57.85 ± 0.88 | 36.99 ± 0.32 | 59.39 ± 3.21 | Cn1nccc1Nc1ncc(Cl)c(-c2csc(C(=O)Nc3cccc(Cl)c3)c2)n1 [6k] | 39.12 ± 1.23 | 23.41 ± 0.48 |
| – | – | – | 46.65 ± 0.32 | 32.34 ± 0.89 | 47.12 ± 9.23 | Cn1nccc1Nc1ncc(Cl)c(-c2csc(C(=O)Nc3cccc(Br)c3)c2)n1 [6l] | 33.90 ± 1.22 | 23.35 ± 2.37 |
| – | – | – | 53.43 ± 0.43 | 35.45 ± 1.32 | 50.98 ± 3.23 | Cn1nccc1Nc1ncc(Cl)c(-c2csc(C(=O)Nc3cccc(C(F)(F)F)c3)c2)n1 [6m] | 34.62 ± 1.24 | 30.41 ± 0.68 |
| – | – | – | 66.54 ± 2.11 | 18.64 ±2.32 | 67.08 ± 0.98 | Cn1nccc1Nc1ncc(Cl)c(-c2csc(C(=O)Nc3cccc(OC(F)(F)F)c3)c2)n1 [6n] | 43.93 ± 0.21 | 33.21 ± 0.54 |
| – | – | – | 84.67 ± 0.65 | 77.49 ± 0.89 | 86.34 ± 0.79 | Cn1nccc1Nc1ncc(Cl)c(-c2csc(C(=O)Nc3cccc(N)c3)c2)n1 [6p] | 33.51 ± 0.32 | 28.42 ± 1.21 |
| – | – | – | 82.11 ±0.61 | 65.90 ± 3.12 | 80.23 ± 0.68 | Cc1cccc(NC(=O)c2cc(-c3nc(Nc4ccnn4C)ncc3Cl)cs2)c1 [6q] | 29.43 ± 3.25 | 33.20± 0.44 |
| – | – | – | 89.45 ± 1.55 | 67.34 ± 3.20 | 88.34 ± 1.78 | CCc1cccc(NC(=O)c2cc(-c3nc(Nc4ccnn4C)ncc3Cl)cs2)c1 [6r] | 15.53 ± 0.90 | 30.21 ± 1.11 |
| – | – | – | 45.57 ± 0.34 | 21.12 ± 2.34 | 41.09 ± 1.05 | COc1ccc(NC(=O)c2cc(-c3nc(Nc4ccn(C)n4)ncc3Cl)cs2)cc1 [9a] | 1.23 ± 1.20 | 8.70 ± 3.21 |
| – | – | – | 23.97 ± 0.90 | 78.85 ± 2.67 | – | CN(C)Cc1cccc(Nc2ncc(Cl)c(-c3csc(C(=O)Nc4cccc(N(C)C)c4)c3)n2)c1 [18d] | 85.64 ± 1.02 | 50.45 ± 2.12 |
